Experimental findings from PubChem BioAssay AID2305 (GlaxoSmithKline (GSK), 2010) are described below.

Values joined by “and” are separate entries in the source; they are usually repeats but may differ in a detail not shown here. Equal values may be shown once.

This assay has as its system P. falciparum 3D7 growth, pLDH absorbance. In words: blood-stage malaria parasite growth potency – strain 3D7, dose response (AID 2305).
In general, IC50 refers to the concentration needed to halve the response being measured. The compound `O=C(Nc1ccc(OC2CCN(Cc3ccc(F)cc3)C2)c(Cl)c1)c1ccc(F)cc1` (stereo not given) displayed an IC50 of 490 nM. For `COC(=O)c1ccc(CC(C)NCC(O)c2cccc3ccccc23)cc1` (stereo not given), the IC50 was determined as 940 nM. Compared with the last compound, the IC50 is about 1.9-fold higher. The compound `O=C(Nc1ccc(CN2CCOCC2)cc1)c1ccc(-c2ccc(Br)cc2)o1` registered an IC50 of 1120 nM. For the compound `Cc1ccc(/C=C/C(=O)NC2CCC(CN3CCC(c4c[nH]c5ccccc45)CC3)CC2)cc1` (stereo not given), the IC50 was 920 nM and 800 nM.

With `CC(C)(C)c1ccc(NC(=O)c2ccc(CN3CCCN(CC4CCCCC4)CC3)cc2)cc1`, the IC50 is 540 nM. Compound `CCN1CCC(N(CCCCCCCCc2ccc(C(F)(F)F)cc2)C(=O)Cn2c(CCc3cccc(F)c3F)cc(=O)c3ccccc32)CC1` showed an IC50 of 1200 nM. With `O=C1C=Cc2ccccc2/C1=C/c1sc(=NCc2ccccc2)n(Cc2ccccc2)c1O`, the IC50 turned out to be 160 nM. Compared with the last compound, the IC50 is about 7.5-fold lower. `CCNc1cc(C(=O)N[C@@H](Cc2ccccc2)[C@H](O)CNC2(CCC(C)C)CC2)cc(N2CCCCS2(=O)=O)c1`: the IC50 stood at 1080 nM. In turn, `CN1N=C2c3ccccc3CCC2C1c1ccc(C#N)cc1` (stereo not given) came in with an IC50 of 660 nM. This IC50 lies about 1.6-fold lower than the previous one. Take `CC(C)(C)c1ccc(CN2CCC(CNC(=O)c3cc(-c4ccccc4)nc4ccccc34)CC2)cc1`: the IC50 was 1020 nM. For `N#Cc1ccc(CN2CCCN(Cc3cccc(NC(=O)c4ccc(Cl)c(Cl)c4)c3)CC2)cc1`, the IC50 was found to be 850 nM. Under `COC(=O)c1cc(C(=O)CN(Cc2ccccc2)C(C)C)ccc1O` stands 180 nM; under `Cc1cc(NC(=O)c2cccs2)ccc1OC1CCN(Cc2ccccc2)C1` (stereo not given), 890 nM; under `Nc1nc(N)c2c(ccc3c2ccn3Cc2ccc(-c3ccccc3)cc2)n1`, 50 nM. Consider `O=C(Nc1ccccc1)N(Cc1cccc(-c2ccc(CNCCc3ccccc3)cc2)c1)C1CCN(Cc2ccccc2)CC1`, for which the IC50 is 350 nM. As to `O=C(/C=C/c1ccc(Cl)c(Cl)c1)NCCCCCN1CCC(NC(=O)Nc2ccc(F)c(Cl)c2)CC1`, the IC50 was 620 nM. Compared with the last compound, the IC50 is about 1.8-fold higher. Under `CC(=O)N(C)c1cccc(C(=O)Nc2cccc(-c3ccc(-c4nc5ccc(C(F)(F)F)cc5[nH]4)cc3)c2)c1` stands 1000 nM; under `O=C(NC1CCCCC1)N(CCCn1ccnc1)Cc1csc(-c2ccc(CNCc3ccccc3)cc2)n1`, 840 nM; under `O=C(Nc1ccc(C(F)(F)F)cc1)c1cccc(S(=O)(=O)NCC2CCCN(CC3CCCCC3)C2)c1` (stereo not given), 750 nM. With `CN(CCN)Cc1cccc(-c2ccc(-c3nc4ccc(C(F)(F)F)cc4[nH]3)s2)c1`, the IC50 was 1000 nM.

With `c1ccc2c(c1)cc(CNCCCN1CCN(CCCNCc3cc4ccccc4c4ccccc34)CC1)c1ccccc12`, the IC50 turned out to be 200 nM. On to `CC(O)CNc1nc2ccccc2n1CC(=O)Nc1cccc(C(=O)Nc2cccc(C(F)(F)F)c2)c1` (stereo not given), for which the IC50 turned out to be 100 nM. Turning to `Cn1cc(CN2CCC(OC(c3ccccc3)c3ccc(Cl)cc3)CC2)cn1` (stereo not given), the IC50 amounted to 840 nM. Compound `c1cc(CNC2CCN(CC3CCCCC3)CC2)cc(-n2ccnc2)c1` yielded an IC50 of 650 nM. This IC50 and that of the compound before are within 1.5-fold of each other. `CC(Cc1ccc(OCC(=O)NCC2CCN(CCc3cccc(Cl)c3)CC2)cc1)NCCc1cccc(Cl)c1` (stereo not given) yielded an IC50 of 660 nM. `Cn1nc(C(F)(F)F)c(-c2ccc(F)cc2)c1NC(=O)Nc1ccccc1`: the IC50 worked out at 800 nM. Under `Cc1cc(NN=Cc2ccc(F)cc2)c2cc(C(F)(F)F)ccc2n1` stands 230 nM. For `CN(C)CCCn1cncc1-c1ccc2ncnc(Nc3ccc4c(cnn4Cc4ccccc4)c3)c2c1` the value was 730 nM; for `Nc1cccc(CNCc2cccc(-c3cccc(-c4nc5ccccc5[nH]4)c3)c2)c1`, 610 nM; for `Cc1cccc(Nc2nc(NCCCCN)nc3cc[nH]c(=O)c23)c1`, 730 nM. As for `COc1ccc(Oc2ccccc2CNCC2CCN(CC3CCCCC3)CC2)cc1`, the IC50 came to 900 nM. Regarding `COc1cc2nc(NCC3CCN(C(=O)c4ccc(-c5ccc(C(=O)N(C)C)cc5C)cc4)CC3)nc(N)c2cc1OC`, the IC50 was 950 nM.

With `O=C(c1cccc(-c2ccc(-c3nc4ccc(C(F)(F)F)cc4[nH]3)cc2)c1)N1CCCCC1CN1CCC(O)C1` (stereo not given), the IC50 was 470 nM.

In turn, `c1cc(CNc2ncc(-c3ccsc3)c(-c3nccs3)n2)ccn1` returned an IC50 of 360 nM. For the compound `CCC(O)c1ccc(Br)cc1NC(=O)c1cccc(Cl)c1` (stereo not given), the IC50 was determined as 1020 nM. `Clc1ccc(-c2[nH]c3ccccc3c2CN2CCC(N3CCCCC3)CC2)cc1` yielded an IC50 of 1060 nM.

Turning to `Cc1[nH]c(C)c(-c2ccc(C(=O)c3ccccc3)cc2)c(=O)c1Br`, the half-inhibitory concentration (IC50) was 780 nM. The IC50 values of the last two compounds are within 1.5-fold of each other. As for `CCOc1cccc(C(=O)Nc2cccc(CN3CCCN(Cc4ccc(O)cc4)CC3)c2)c1`, the IC50 came out at 820 nM. As to `c1cncc(Oc2ccc(Nc3ccnc4cc(-c5cccc(CN6CCOCC6)c5)ccc34)cc2)c1`, the IC50 stood at 310 nM. Under `CC(C)c1ccc(NC(=O)c2ccc(CN3CCCN(CC4CCCCC4)CC3)cc2)cc1` stands 620 nM. For the compound `CCCN(CCC)C(=O)c1cc(C(=O)N[C@@H](Cc2ccccc2)[C@H](O)CNCc2cccc(C(F)(F)F)c2)cc(N2CCCCS2(=O)=O)c1`, the IC50 worked out at 880 nM. This IC50 and that of the compound before are within 1.5-fold of each other. In turn, `O=C(/C=C/c1cc(F)cc(C(F)(F)F)c1)N1CCC(CN2CCC(c3c[nH]c4ccccc34)CC2)CC1` displayed an IC50 of 760 nM.

As for `O=C(Nc1cccc(CN2CCCN(Cc3ccc(O)cc3)CC2)c1)c1cc(F)cc(F)c1`, the IC50 turned out to be 660 nM. This IC50 and that of the compound before are within 1.5-fold of each other. Compound `CCCC(C)N(Cc1ccc(C(C)(C)C)cc1)C(=O)c1cccc(OC)c1` (stereo not given) yielded an IC50 of 340 nM. Under `CN(C)CCC1CCCc2ccc(NC(=O)Nc3ccc(-c4ccncc4)c4ccccc34)cc21` (stereo not given) stands 1070 nM. Compound `Clc1ccc(CNCC2CCN(CC3CCCCC3)CC2)cc1Cl` yielded an IC50 of 1000 nM. This IC50 and that of the compound before are within 1.5-fold of each other. For `COc1ccc2nc(C)cc(NN=Cc3cccc([N+](=O)[O-])c3)c2c1`, the IC50 came out at 730 nM. For `CCCN(CCC)CC(O)COc1ccccc1C(=O)Nc1ccccc1` (stereo not given) the value was 800 nM; for `C#CCCOc1ccc2ccccc2c1CNCCCCCCNCc1c(OCCC#C)ccc2ccccc12`, 810 nM. Consider `Clc1ccc(CNc2ccnc(NCc3cccnc3N3CCCC3)n2)c(Cl)c1`, for which the IC50 was 1170 nM. Compound `CS(=O)(=O)CCNCc1cc(-c2cc3ncnc(Nc4ccc(OCc5cccc(F)c5)c(Cl)c4)c3s2)cs1` returned an IC50 of 330 nM. In the case of `O=c1cc(NC[C@H]2CCC[C@@H]2NCc2cc(Br)cc(Br)c2)[nH]c2ccccc12`, the IC50 was determined as 680 nM. As to `COc1cc(CNCCCCCCNCc2cc(OC)c(OC)c3ccccc23)c2ccccc2c1OC`, the IC50 stood at 230 nM. Consider `O=C(NCC1CCN(Cc2cccc(C(F)(F)F)c2)C1)c1cc(-c2cccc(F)c2)cs1` (stereo not given), for which the IC50 was 1180 nM.

`COc1ccc(C=NNc2cc(C)nc3ccccc23)cc1OC`: the IC50 stood at 860 nM. In turn, `Cc1cc(N[C@@H](Cc2ccccc2)C(=O)NCCOc2ccccc2)nc(NCc2ccccc2C)n1` gave an IC50 of 710 nM. The IC50 values of the last two compounds are within 1.5-fold of each other.

With `C[C@H](NC(=O)c1c(CN2CCC(N3CCCCC3)CC2)c(-c2ccccc2)nc2cc(O)ccc12)C1CCCCC1`, the IC50 is 760 nM. The compound `COc1ccc(CNC2CCN(C)CC2)cc1-c1ccc(S(=O)(=O)NCCc2ccccn2)c(F)c1` yielded an IC50 of 820 nM.

For `COc1ccc(-c2ccc(NC(=O)c3ccc(Cl)cc3)cc2)cc1CN1CCCN(C)CC1`, the IC50 is 650 nM. For `CCOc1cc(OCC)c2ccccc2c1CNCCCCCCNCc1c(OCC)cc(OCC)c2ccccc12`, the IC50 came out at 310 nM.

In the case of `CCCCCC(C)C(C)c1cc(O)c2c(c1)OC(C)(C)CC2=Cc1ccncc1` (stereo not given), the IC50 was found to be 210 nM. This IC50 and that of the compound before are within 1.5-fold of each other. `O=C(Nc1cccc(F)c1)N(Cc1ccc(-c2cccc(CN3CCNCC3)c2)cc1)C1CCN(Cc2ccccc2)CC1`: the IC50 is 760 nM. Against the preceding compound, the IC50 is about 3.6-fold higher. Turning to `CN1CCN(Cc2cccc(-c3ccc4c(Nc5ccc(F)cc5Cl)ccnc4c3)c2)CC1`, the IC50 was determined as 160 nM. The compound `CN1CCN(c2ccnc3ccc(NC(=O)Nc4ccc(-c5ccccc5)cc4)cc23)CC1` yielded an IC50 of 780 nM. In the case of `COc1ccc2nccc([C@@H](O)CN3CCC(c4cc(-c5ccc(Cl)cc5)n[nH]4)CC3)c2n1`, the IC50 was found to be 740 nM. In the case of `CC(C)CNC(=O)c1cncc(-c2ccc(CN3CCC(N4CCCC4)CC3)cc2)c1`, the IC50 is 690 nM.

The compound `Cc1ccc(NC(=O)c2ccc3ncccc3c2)cc1OC1CCN(Cc2ccc(F)cc2)C1` (stereo not given) yielded an IC50 of 1360 nM. `Nc1nc(N)c2c(ccc3c2ncn3Cc2ccccc2)n1` came in with an IC50 of 90 nM.

`O=c1cc(N2CCCNCC2)c(Cl)nn1Cc1ccc(NS(=O)(=O)c2ccc(Oc3ccccc3)cc2)cc1` had an IC50 of 800 nM. Against the preceding compound, the IC50 is about 8.9-fold higher. Regarding `O=C(Nc1ccc(F)cc1)NC1CCN(c2ccnc3cc(Cl)ccc23)CC1`, the IC50 stood at 410 nM. This IC50 lies about 2-fold lower than the previous one. For `COc1cc2c(c(Cl)c1OC)CCN(C(=O)C(F)(F)F)CC2c1ccccc1` (stereo not given) the value was 440 nM; for `CN(C)CCCn1cc(C(=O)OC2C[C@H]3CC[C@@H](C2)N3C)c2cc(-c3ccccc3)ccc21` (stereo not given in full), 840 nM; for `Cc1cccc2[nH]c(-c3cccc(-c4ccc(NC(=O)N[C@@H]5C[C@H]5c5ccccc5)cc4)c3)nc12`, 720 nM. `N#Cc1cccc(NC(=O)Nc2ccc(-c3cccc(-c4nc5ccc(F)cc5[nH]4)c3)cc2)c1`: the concentration for half-maximal inhibition (IC50) was found to be 270 nM. As to `Cc1cccc(C)c1N1CCN(C2CCC(NC(=O)c3cc4ccccc4[nH]3)CC2)CC1` (stereo not given), the IC50 is 600 nM. As for `CCc1cn2c3c(cc(C(=O)N[C@@H](Cc4ccccc4)[C@H](O)CNC(C)C)cc13)N(C)S(=O)(=O)C2`, the IC50 came to 320 nM.

`O=C(CC(c1ccccc1)c1ccccc1O)N1CCOCC1` (stereo not given): the IC50 stood at 1520 nM. With `CCOc1cc(C2C(C(=O)OC(C)C)=C(C)NC3=C2C(=O)CC(c2ccc(Cl)cc2)C3)ccc1OC(C)=O` (stereo not given), the IC50 is 930 nM. For `FC(F)(F)c1cccc(CCNc2nccc(NCc3ccccc3Cl)n2)c1`, the IC50 stood at 1170 nM. For `CC(=O)Nc1cccc(-c2cn(-c3ccc(OCc4cccc(F)c4)c(Cl)c3)c3ncncc23)c1` the value was 70 nM; for `c1ccc(CNc2nc(NCCc3cnc[nH]3)nc(NCc3cccc4ccccc34)n2)cc1`, 1110 nM. Under `O=C(Nc1ccc2c(c1)CCN2C1CCN(Cc2cccc(F)c2F)C1)c1ccco1` (stereo not given) stands 790 nM. In turn, `COc1ccc(N2CCN(CCCCNC(=O)c3ccc(NC(=O)c4cccc(Cl)c4)cc3)CC2)c(OC)c1` showed an IC50 of 910 nM. Under `COc1ccc(NC(=O)C2c3ccccc3C(=O)N(C3CCCC3)C2c2cccs2)c(OC)c1` (stereo not given) stands 1480 nM; under `O=C(Nc1cccc(CN2CCCN(CCc3ccccc3)CC2)c1)c1cc2ccccc2s1`, 1130 nM.
